Measured values published in patent publication US11344601B2, “Tumor microenvironment-related target TAK1 and application thereof in inhibition of tumor” (Shanghai Institutes for Biological Sciences, Chinese …, priority 2017, dated 2022).

Test system: SASP effectors
Assay: Genome-wide expression microarray of SASP effectors in PSC27 cells
Type: cell-based, human
Settings: bleomycin in combination with 5Z-7 vs bleomycin alone
Protocol: FIG. 34. After simultaneous treatment of PSC27 cells with bleomycin and/or 5Z-7, SB203580 (SB) and RAD001, total RNA was analyzed by microarray for expression-spectrum.
c. Experimental Treatment In Vitro • 100 nM docetaxel (DTX), 100 nM paclitaxel (PTX), 200 nM vincristine (VCR), 50 μg/ml bleomycin (BLEO), 1 μM mitoxantrone (MIT), or 10 Gy ^137CS ionizating radiation (γ-radiation at 743 rad/min, RAD) was added to the culture medium when PSC27 cells grown to 80% (PSC27-Pre) to produce cell damage. After drug treatment for 6 hours, the cells were simply washed by PBS for 3 times and kept in the culture medium for 7 to 10 days, followed by subsequent experiments. 2. Plasmid Preparation and Lentiviral Transfection • Full-length human IKKα and Flag were cloned as a fusion protein between the restriction sites BamHI and XbaI in the expression vector pCR3.1. Full-length human mTOR and GST were cloned as a fusion protein between a pair of NotI restriction sites in the expression vector pcDNA3. […] FV1000 laser scanning confocal microscopy (Olympus) was used to obtain cellular confocal fluorescence images to determine the extent of DNA damage. • Antibody anti-TAK1 used for histological IHC staining in clinical prostate, non-small cell lung cancer patients and breast cancer patients, was purchased from Proteintech, idib. […]

COc1cc(O)c2c(c1)/C=C/C[C@H](O)[C@H](O)C(=O)/C=C\C[C@H](C)OC2=O [5Z-7, 5z-7-oxozeaenol]
expression of SASP effectors: significantly inhibited
